# Experimental data taken from patent publication US20220332799A1, “HERV INHIBITORS FOR USE IN TREATING TAUOPATHIES” (Deutsches Zentrum Für Neurodegenerative Erkrankungen E.V. …, priority 2019, published 2022).
# Entries after “also recorded” stand apart in the source; their conditions may differ.
# How the values were obtained:
# Format in all cases: cell-based, human
# [1] = system: HEK Tau-FusionRed^sol cells expressing murine XPR1-HA; test: Tau aggregate induction in recipient cells by coculture with N2a s2E Tau-GFP^CBD donor cells; conditions: donors pretreated with 10 μM; coculture 3 d in the presence of 10 μM; vs DMSO
# Procedure: To examine this effect on Tau aggregate spreading, an N2a s2E cell clone stably propagating aggregated Tau-GFP^CBD was produced (FIG. 11a). […]. Cells and EVs were analyzed for the presence of aggregated Tau-GFP. Pronase-resistant Tau-GFP was found in both cell lysate and EVs (FIG. 2q). To inhibit MuERV gene product maturation, donor cells were treated with Amprenavir for three days. Donor cells and donor cell-derived EVs were subsequently exposed for three days to recipient HEK cells expressing soluble Tau-FusionRed and the murine XPR1 receptor variant required for MuERV Env interaction. Due to this long incubation time, the coculture and EV induction assays were performed in the presence of Amprenavir (FIG. 11b). […]
# Recipient cells were cultured on CellCarrier-96 plates or 384 black microplates (PerkinElmer) at appropriate cell numbers for 1 h, and then treated with 5-10 μl of prepared samples (isolated EVs or recombinant NM fibrils). […] On average, a total of 3-4×10^4 cells per well and at least 3 wells per treatment were analyzed.
# (§1) The treatment of cells with Amprenavir (10 μM; Santa Cruz) and DMSO was performed for 72 h in EV-depleted medium in T175 flasks. Afterwards, the total numbers of viable cells and the viability upon drug treatment were determined using the Vi-VELL™ XR Cell Viability Analyzer (Beckman Coulter). […]
# HEK NM-mCherry^sol cells = test: NM-mCherry aggregate induction by coculture with T47D NM-GFP^agg donor cells; conditions: 10 μM, donors 1 d pretreated, coculture 1 d in presence of drug; vs DMSO
# [2] = system: HEK Tau-FusionRed^sol cells; test: Tau-FusionRed aggregate induction by coculture with T47D Tau-GFP^AD or Tau-GFP^FTLD donor cells; conditions: T47D Tau-GFP^AD or Tau-GFP^FTLD donors pretreated one day with 10 μM, coculture 3 d in presence of drug; vs DMSO
# Procedure: FIG. 4: Human endogenous retrovirus proteins potentiate intercellular Tau aggregate induction. • a. Workflow of Amprenavir treatment. […]. Two days later, these donor cells were incubated with 10 μM Amprenavir or solvent control DMSO for 1 d. Subsequently, donor cells with NM-GFP^agg, Tau-GFP^FTLD or Tau-GFP^AD aggregates were cocultured with recipient HEK NM-mCherry^sol or HEK Tau-FusionRed^sol cells, respectively, for 1 d (NM) or 3 d (Tau) in the presence of 10 μM Amprenavir or DMSO. • b. […] Percentage of recipient HEK NM-Cherry cells that harbor induced NM-mCherry aggregates. • c., d. […] Percentage of HEK Tau-FusionRed cells that harbor Tau-FusionRed^agg after coculture with T47D Tau-GFP^agg donor cell lines (n=6, ***, p<0.001; unpaired student t test).
# To examine the effect of HERV-K proteins on Tau aggregate spreading, a T47D donor cell line stably expressing Tau-GFP^sol was generated. […]
# as §1
smiles,measurement,setting,value
CC(C)CN(C[C@@H](O)[C@H](Cc1ccccc1)NC(=O)O[C@H]1CCOC1)S(=O)(=O)c1ccc(N)cc1 [Amprenavir],Tau-FusionRed aggregate induction in cocultures,[1],decreased Tau-FusionRed aggregate induction in Amprenavir-treated cocultures; also recorded: significantly decreased Tau-FusionRed aggregate induction in recipients
same,number of recipient cells with induced NM-mCherry aggregates,HEK NM-mCherry^sol cells,reduced the number of recipient cells with induced NM-mCherry aggregates compared to the DMSO control; also recorded: impairs NM-mCherry aggregate induction
same,Tau aggregate induction in recipient cells,[2],significant decrease in Tau aggregate induction in recipient cells; also recorded: impairs Tau-FusionRed aggregate induction
